Results on eleven compounds are retold here after patent US8349834B2, “Dioxolane derivates for the treatment of cancer” (Clavis Pharma AS, priority 2005, dated 2013).

Series [1] has as its system U937 cells.
Description: (§1) The U937 and THP-1 cell lines were seeded, 20 000 cells per well, in 96-well-plates. 50 μl medium ( ) was added to each well. At the same time test compounds were added in 5 different concentrations and incubated for 48 hours. The CellTiter 96® Non-Radioactive cell proliferation assay (Promega) was used to study the cytotoxicity of test in these cells. This assay is a colorimetric method for determining the number of viable cells in proliferation or chemosensitivity assays. […] MTS is bioreduced by cells into a formazan product that is soluble in tissue culture medium. The absorbance of the formazan at 490 nm can be measured directly from 96 well assay plates without additional processing.
For series [2], the system named is THP-1 cells.
Description: as §1
The test system of series [3] is U937 cells. Kind of series: CellTiter 96 MTS cytotoxicity in U937 cells. As to conditions: U937, 48 hours; for IC50: read-out: U937 cells IC50 μM ± SD, MTS.
Description: as §1
Series [4] relates to THP-1 cells. Kind of series: CellTiter 96 MTS cytotoxicity in THP-1 cells. The settings on record: THP-1, 48 hours; for IC50: read-out: THP-1 cells IC50 μM ± SD, MTS.
Description: as §1
Series [5] relates to several cell lines. The settings on record: prior art references; cited from earlier work.
Series [6] concerns MaTu/Adr cells. Kind of series: in-vitro activity in breast tumour line MaTu and adriamycin resistant subline MaTu/Adr. Type of series: cell-based. The settings on record: MaTu/Adr vs. MaTu.
The subject of series [7] is HeLa/mut cells. Kind of series: MTT growth inhibition in cervical cancer cell line HeLa/mut. The class given is cell-based, human. The settings on record: for IC50: 4 days incubation, MTT, read-out: IC50 μM ± Standard Deviation. On the procedure: The cervical cancer cell line HeLa/mut was seeded, 5×10^3 cells per well, in 96-well-plates. The medium was RMPI 1640 with 2 mM Glutamine and 10% Foetal Bovine Serum. 24 hours later the test compounds were added in 6 concentrations. The cells were incubated for 4 days. The MTT solution was added to each well and incubated for 4 hours. The samples were read by an ELISA reader at 540 nm. The IC50 values were determined from growth curves. The test compounds were troxacitabine elaidic amid, troxacitabine petroselaidoate, troxacitabine-petroselaidic amide and troxacitabine γ-linolenoate.

Where two headings read alike, the source gives them in different places.

As to `CCCCC/C=C\C/C=C\C/C=C\CCCCC(=O)Nc1ccn([C@@H]2CO[C@H](CO)O2)c(=O)n1` [Troxacitabine N^4-6,9,12-linolenic acid amide], the cytotoxicity in words result in series [1] and in series [2] was “even more active than the other compounds” in each case. In addition, the results for the half-inhibitory concentration (IC50) in series [3] and in series [4] were 0.007 µM and 0.085 µM, respectively.
On to `CCCCCCCCCCC/C=C\CCCCC(=O)OC[C@H]1OC[C@@H](n2ccc(N)nc2=O)O1` [Troxacitabine-2′-hydroxymethyl-petroselinoate], for which, in series [3], the cytotoxicity in words entry is “even more active than the other compounds” and the IC50 (as a rule, the concentration that inhibits the measured activity by half) came to 0.007 µM. In addition, in series [4], the cytotoxicity in words result is “even more active than the other compounds” and the IC50 turned out to be 0.09 µM.
As to `CCCCCCCC/C=C/CCCCCCCC(=O)OC[C@H]1OC[C@@H](n2ccc(N)nc2=O)O1` [Troxacitabine-5′-elaidic acid ester, reference compound], the IC50 in series [3] and in series [4] was 0.06 µM in each case.
As to `CCCCCCCCC=CCCCCCCCC(=O)OCC1OCC(n2ccc(N)nc2=O)O1` (stereo not drawn) [Troxacitabine-5′-oleate, reference compound], the IC50 in series [3] turned out to be 0.09 µM; in series [4], 0.07 µM.
Turning to `CCCCCCCCC=CCCCCCCCC(=O)Nc1ccn(C2COC(CO)O2)c(=O)n1` (stereo not drawn) [oleic acid amid derivative], the “times better than the elaidic counterpart” value in series [5] is listed as 2 to 5 times.
Regarding `CCCCCCCC/C=C/CCCCCCCC(=O)Nc1ccn([C@@H]2CO[C@H](CO)O2)c(=O)n1` [troxacitabine elaidic-amide, Troxacitabine N^4-Elaidic Acid Amide], in series [6], the resistance factor was determined as 6.
With `CCCCCCCCCCC/C=C/CCCCC(=O)OC[C@H]1OC[C@@H](n2ccc(N)nc2=O)O1` [troxacitabine petroselaidoate, Troxacitabine-2′-hydroxymethyl-petroselaidoate], the half-maximal inhibitory concentration (IC50) in series [7] is 0.18 ± 0.12 µM; in series [3], 0.08 µM; in series [4], 0.06 µM. Also, the “fold more active than troxacitabine elaidic amid” value in series [7] (relative to troxacitabine elaidic amide) came to 20 fold.
For `CCCCC/C=C\C/C=C\C/C=C\CCCCC(=O)OC[C@H]1OC[C@@H](n2ccc(N)nc2=O)O1` [troxacitabine γ-linolenoate, Troxacitabine 2′-hydroxymethyl-6,9,12-linolenoate], the IC50 in series [7] came out at 0.83 ± 0.59 µM; in series [3], 0.09 µM; in series [4], 0.16 µM.
For the compound `CCCCCCCCCCC/C=C/CCCCC(=O)Nc1ccn([C@@H]2CO[C@H](CO)O2)c(=O)n1` [troxacitabine-petroselaidic amide, Troxacitabine N^4-petroselaidic acid amide], the IC50 in series [7] turned out to be 0.15 ± 0.07 µM; in series [3], 0.02 µM; in series [4], 0.08 µM.
Turning to `CCCCCCCCCCC/C=C\CCCCC(=O)Nc1ccn([C@@H]2CO[C@H](CO)O2)c(=O)n1` [troxacitabine-petroselinic amide, Troxacitabine N^4-petroselinic acid amide], the cytotoxicity in words result in series [3] and in series [4] was “even more active than the other compounds” each time.
Take `CCCCCCCC/C=C/CCCCCCCC(=O)Nc1ccn(C2COC(CO)O2)c(=O)n1` (stereo not drawn) [α-troxacitabine N4-elaidic acid amide, reference compound]: in series [3], the IC50 stood at 10 µM.
